Blank lines part the entries; values can stand above or below the compound they belong to.
Columns and labels:
[1] = system: rat intestine (jejunum, ileum, colon); experiment: Ussing chamber intestinal permeability of CAP; format: in vitro ADME; settings: for fold-inhibition factor of CAP Papp: vs CAP only
Method: NOVO was also prepared in HEPES buffer to yield final concentration at 5, 10, 25, 50, 100, and 200 μM. […] Different portions of the rat intestine were excised and flushed with HEPES buffer, including jejunum (after the first 5 cm of the top of small intestine), ileum (the distal part of small intestine) and colon (proximal to cecal-colonic junction), and incubated in the ice-cold HEPES buffer. Next, 3–4 cm of the intestine was clipped, and the serosa was removed rapidly on an ice-cold glass. The intestinal segments were fixed in the Ussing chamber. Finally, 7 mL of HEPES buffer was added to the receiving side while an equal volume of drug solution to the dosing side. […] All the samples were kept at -20°C till HPLC analysis.
In brief, samples were injected into a C18 column (3.5 μm, 2.1 mm × 100 mm). An aliquot of 20 μL of sample solutions were injected.

IEC-6/TRPV1+ cells = experiment: MTT cell viability assay; settings: for Cell Survival: IEC-6/TRPV1+
Method: (§1) The rat intestinal epithelial cell line IEC-6, purchased from Kunming Institute of Zoology. CAS, was cultured in Dulbecco’s Modified Eagle’s Medium (DMEM) (Gibco, Grand Island, NY, United States) supplemented with 10% fetal bovine serum (FBS; Gibco) at 37°C in a humidified atmosphere of 5% CO2.
(§2) The plasmid pENTER containing the TRPV1 coding sequence NM_080704 was used as template in a PCR with the following primers: 5′-[…]-3′ (forward) and 5′-[…] (reverse). And synthetic small interfering RNA (siRNA) specific for rat TRPV1 (TRPV1-siRNA) was purchased from Vigene Bioscience (Rockville, MD, United States) with the following sequences: 5′-[…]-3′ (forward) and 5′-[…]-3′ (reverse) for TRPV1-siRNA. The transfecting process was conducted by using the lipofectamin® 3000 transfection reagent (Invitrogen^TM, Carlsbad, CA, United States), according to the manufacturer’s protocol.
(§3) The transfected cells were plated in 96-well plates. […] Optical density at 490 nm was used to evaluate cell viability in 96-well plates.

IEC-6/TRPV1- cells [2] = experiment: MTT cell viability assay
Method: as §1, §2, §3

TRPV1 = TRPV1 mRNA and protein expression in rat intestine after oral administration (qRT-PCR, western blot); format: in vivo
Method: Forty male SD rats (200–250 g) were used for orally administered experiment. The animals were arbitrarily distributed in eight different groups and each group was treated with its respective dose of calculated amount. Group I was orally administered 0.9% normal saline (5 mL⋅kg^-1). Group II labeled as positive control was orally administered with 10 μM RR (5 mL⋅kg^-1). Rats of Group […] were treated with 5 mL⋅kg^-1 of NOVO dissolved in 0.9% normal saline (5, 10, 25, and 50 μM, respectively). The animals were orally administered twice a day for 2 weeks. After another 14 days, animals were sacrificed and then the jejunum, ileum and colon tissue were excised. The intestinal tissues were frozen in liquid nitrogen, and then stored at -80°C for protein or ribonucleic acid (RNA) isolation.
qRT-PCR was performed to evaluate TRPV1 mRNA expression after NOVO treatment. The total RNA of the cells or tissues was isolated with an RNA isolation plus kit (Takara Shuzo, Kyoto, Japan), according to the manufacturer’s protocol. The quality of RNA was confirmed by agarose gel electrophoresis and an optical density measurement of A260/A280. The cDNAs were prepared using SYBR® Premix Ex Taq^TMII (Takara Shuzo, Kyoto, Japan) and the following primers: 5′-[…]-3′ and 5′-[…]-3′ for TRPV1, and 5′-[…]-3′, 5′-[…]-3′ for GAPDH were carried out by using the LightCycler480 System. The relative expression was calculated by the 2^-ΔΔC(t) method ([Livak and Schmittgen, 2001]).
After treatment, the cells or tissues were collected and washed with PBS. Membrane protein extracts were obtained with Membrane Protein Extraction Kit (Thermo Fisher Scientific Inc, United States), according to the manufacturer’s protocol. Protein concentrations were quantified by using the BCA Protein Assay kit (Beyotime, Shanghai, China). Equal amounts of protein were resolved by SDS-PAGE on a 10% polyacrylamide gel and transferred onto a polyvinylidene fluoride membrane. […]

IEC-6/TRPV1- cells [3] = experiment: LDH release assay (cell membrane integrity)
Method: The transfected cells were plated in 12-well plates. […] The cells were centrifuged at 1000 g for 5 min. Next, 50 μL of supernatants were aspirated and the rest of supernatants were discarded. The cells were washed twice with deionized water and then lysed by ultrasonic wave cracker. And then cell lysate and supernatants were analyzed by using LDH Release Assay Kit, according to the manufacturer’s instructions.

permeability of CAP in the Ussing chamber experiment ([1]; NOVO concentration higher than 100 μM, data not shown): increased
Papp of CAP ([1]; colon, CAP + 5 μM inhibitor): 8.28 ± 2.55 ×10^-6, cm⋅s^-1
fold-inhibition factor of CAP Papp ([1]; colon, CAP + 5 μM inhibitor): 2.41 fold
Papp of CAP ([1]; colon, CAP + 10 μM inhibitor): 6.05 ± 1.85 ×10^-6, cm⋅s^-1
fold-inhibition factor of CAP Papp ([1]; colon, CAP + 10 μM inhibitor): 3.30 fold
Papp of CAP ([1]; colon, CAP + 25 μM inhibitor): 5.65 ± 2.04 ×10^-6, cm⋅s^-1
fold-inhibition factor of CAP Papp ([1]; colon, CAP + 25 μM inhibitor): 3.54 fold
Papp of CAP ([1]; colon, CAP + 50 μM inhibitor): 9.79 ± 2.20 ×10^-6, cm⋅s^-1
fold-inhibition factor of CAP Papp ([1]; colon, CAP + 50 μM inhibitor): 2.04 fold
Papp of CAP ([1]; ileum, CAP + 5 μM inhibitor): 3.40 ± 0.76 ×10^-6, cm⋅s^-1
fold-inhibition factor of CAP Papp ([1]; ileum, CAP + 5 μM inhibitor): 2.17 fold
Papp of CAP ([1]; ileum, CAP + 10 μM inhibitor): 2.17 ± 0.58 ×10^-6, cm⋅s^-1
fold-inhibition factor of CAP Papp ([1]; ileum, CAP + 10 μM inhibitor): 3.40 fold
Papp of CAP ([1]; ileum, CAP + 25 μM inhibitor): 4.02 ± 0.42 ×10^-6, cm⋅s^-1
fold-inhibition factor of CAP Papp ([1]; ileum, CAP + 25 μM inhibitor): 1.83 fold
Papp of CAP ([1]; ileum, CAP + 50 μM inhibitor): 5.23 ± 0.25 ×10^-6, cm⋅s^-1
fold-inhibition factor of CAP Papp ([1]; ileum, CAP + 50 μM inhibitor): 1.41 fold
Papp of CAP ([1]; jejunum, CAP + 5 μM inhibitor): 1.96 ± 0.25 ×10^-6, cm⋅s^-1
fold-inhibition factor of CAP Papp ([1]; jejunum, CAP + 5 μM inhibitor): 1.60 fold
Papp of CAP ([1]; jejunum, CAP + 10 μM inhibitor): 1.36 ± 0.47 ×10^-6, cm⋅s^-1
fold-inhibition factor of CAP Papp ([1]; jejunum, CAP + 10 μM inhibitor): 2.31 fold
Papp of CAP ([1]; jejunum, CAP + 25 μM inhibitor): 1.60 ± 0.38 ×10^-6, cm⋅s^-1
fold-inhibition factor of CAP Papp ([1]; jejunum, CAP + 25 μM inhibitor): 1.97 fold
Papp of CAP ([1]; jejunum, CAP + 50 μM inhibitor): 2.11 ± 0.04 ×10^-6, cm⋅s^-1
fold-inhibition factor of CAP Papp ([1]; jejunum, CAP + 50 μM inhibitor): 1.49 fold
LDH release (IEC-6/TRPV1- cells [3]; 1 μM, 12 h): 0.638 ± 0.131 gprot⋅mL ^-1
LDH release (IEC-6/TRPV1- cells [3]; 1 μM, 24 h): 0.433 ± 0.127 gprot⋅mL ^-1
LDH release (IEC-6/TRPV1- cells [3]; 5 μM, 12 h): 0.651 ± 0.120 gprot⋅mL ^-1
LDH release (IEC-6/TRPV1- cells [3]; 5 μM, 24 h): 0.554 ± 0.103 gprot⋅mL ^-1
LDH release (IEC-6/TRPV1- cells [3]; 10 μM, 12 h): 0.535 ± 0.119 gprot⋅mL ^-1
LDH release (IEC-6/TRPV1- cells [3]; 10 μM, 24 h): 0.502 ± 0.106 gprot⋅mL ^-1
SMILES: CO[C@@H]1[C@@H](OC(N)=O)[C@@H](O)[C@H](Oc2ccc3c(O)c(NC(=O)c4ccc(O)c(CC=C(C)C)c4)c(=O)oc3c2C)OC1(C)C [NOVO, novobiocin]
Cell Survival (IEC-6/TRPV1+ cells; 1.25 μM, incubation 12 h): 1.208 ± 0.172
Cell Survival (IEC-6/TRPV1+ cells; 1.25 μM, incubation 24 h): 1.353 ± 0.192
Cell Survival (IEC-6/TRPV1+ cells; 2.5 μM, incubation 12 h): 1.139 ± 0.157
Cell Survival (IEC-6/TRPV1+ cells; 2.5 μM, incubation 24 h): 1.326 ± 0.252
Cell Survival (IEC-6/TRPV1+ cells; 5 μM, incubation 12 h): 1.118 ± 0.201
Cell Survival (IEC-6/TRPV1+ cells; 5 μM, incubation 24 h): 1.282 ± 0.203
Cell Survival (IEC-6/TRPV1+ cells; 10 μM, incubation 12 h): 1.156 ± 0.135
Cell Survival (IEC-6/TRPV1+ cells; 10 μM, incubation 24 h): 0.954 ± 0.012
Cell Survival (IEC-6/TRPV1+ cells; 20 μM, incubation 12 h): 1.113 ± 0.102
Cell Survival (IEC-6/TRPV1+ cells; 20 μM, incubation 24 h): 0.744 ± 0.232
Cell Survival (IEC-6/TRPV1+ cells; 40 μM, incubation 12 h): 1.018 ± 0.091
Cell Survival (IEC-6/TRPV1+ cells; 40 μM, incubation 24 h): 0.752 ± 0.291
Cell Survival (IEC-6/TRPV1+ cells; 50 μM, incubation 12 h): 1.065 ± 0.125
Cell Survival (IEC-6/TRPV1+ cells; 50 μM, incubation 24 h): 0.668 ± 0.124
concentration up to which more than 80% of the cells were viable (IEC-6/TRPV1+ cells; both IEC-6/TRPV1+ and IEC-6/TRPV1-, incubated 24 h): 10 µM
Cell Survival (IEC-6/TRPV1- cells [2]; 1.25 μM, incubation 12 h): 1.261 ± 0.512
Cell Survival (IEC-6/TRPV1- cells [2]; 1.25 μM, incubation 24 h): 1.192 ± 0.099
Cell Survival (IEC-6/TRPV1- cells [2]; 2.5 μM, incubation 12 h): 1.063 ± 0.361
Cell Survival (IEC-6/TRPV1- cells [2]; 2.5 μM, incubation 24 h): 1.113 ± 0.177
Cell Survival (IEC-6/TRPV1- cells [2]; 5 μM, incubation 12 h): 1.128 ± 0.274
Cell Survival (IEC-6/TRPV1- cells [2]; 5 μM, incubation 24 h): 0.952 ± 0.134
Cell Survival (IEC-6/TRPV1- cells [2]; 10 μM, incubation 12 h): 1.101 ± 0.101
Cell Survival (IEC-6/TRPV1- cells [2]; 10 μM, incubation 24 h): 0.861 ± 0.088
Cell Survival (IEC-6/TRPV1- cells [2]; 20 μM, incubation 12 h): 1.011 ± 0.194
Cell Survival (IEC-6/TRPV1- cells [2]; 20 μM, incubation 24 h): 0.749 ± 0.138
Cell Survival (IEC-6/TRPV1- cells [2]; 40 μM, incubation 12 h): 1.051 ± 0.214
Cell Survival (IEC-6/TRPV1- cells [2]; 40 μM, incubation 24 h): 0.647 ± 0.015
Cell Survival (IEC-6/TRPV1- cells [2]; 50 μM, incubation 12 h): 1.123 ± 0.293
Cell Survival (IEC-6/TRPV1- cells [2]; 50 μM, incubation 24 h): 0.591 ± 0.261
TRPV1 protein expression in rat intestine (TRPV1; 5 μM NOVO p.o., western blot): not sufficient to attenuate TRPV1 protein expression
TRPV1 mRNA level in rat intestine (TRPV1; 14 days p.o. NOVO 5-50 μM twice per day, jejunum, ileum, colon, Figure 2D): decreased markedly
TRPV1 protein level in rat intestine (TRPV1; 14 days p.o. NOVO twice per day, western blot, Figure 2E): decreased the TRPV1 protein level in a dose-dependent manner

LDH release (IEC-6/TRPV1- cells [3]; 0.1 μM, 12 h): 0.509 ± 0.155 gprot⋅mL ^-1
LDH release (IEC-6/TRPV1- cells [3]; 0.1 μM, 24 h): 0.537 ± 0.019 gprot⋅mL ^-1
SMILES: O=C(Nc1ccccc1Br)N[C@@H]1CCN(c2ccc(C(F)(F)F)cn2)C1 [SB-705498]
Cell Survival (IEC-6/TRPV1+ cells; 0.001 μM, incubation 12 h): 1.114 ± 0.190
Cell Survival (IEC-6/TRPV1+ cells; 0.001 μM, incubation 24 h): 1.018 ± 0.061
Cell Survival (IEC-6/TRPV1+ cells; 0.01 μM, incubation 12 h): 1.101 ± 0.236
Cell Survival (IEC-6/TRPV1+ cells; 0.01 μM, incubation 24 h): 1.129 ± 0.185
Cell Survival (IEC-6/TRPV1+ cells; 0.1 μM, incubation 12 h): 1.274 ± 0.223
Cell Survival (IEC-6/TRPV1+ cells; 0.1 μM, incubation 24 h): 1.118 ± 0.139
Cell Survival (IEC-6/TRPV1+ cells; 1 μM, incubation 12 h): 1.203 ± 0.139
Cell Survival (IEC-6/TRPV1+ cells; 1 μM, incubation 24 h): 1.052 ± 0.100
Cell Survival (IEC-6/TRPV1+ cells; 5 μM, incubation 12 h): 1.276 ± 0.156
Cell Survival (IEC-6/TRPV1+ cells; 5 μM, incubation 24 h): 0.976 ± 0.098
Cell Survival (IEC-6/TRPV1- cells [2]; 0.001 μM, incubation 12 h): 1.261 ± 0.268
Cell Survival (IEC-6/TRPV1- cells [2]; 0.001 μM, incubation 24 h): 0.999 ± 0.082
Cell Survival (IEC-6/TRPV1- cells [2]; 0.01 μM, incubation 12 h): 1.158 ± 0.144
Cell Survival (IEC-6/TRPV1- cells [2]; 0.01 μM, incubation 24 h): 0.968 ± 0.218
Cell Survival (IEC-6/TRPV1- cells [2]; 0.1 μM, incubation 12 h): 1.169 ± 0.333
Cell Survival (IEC-6/TRPV1- cells [2]; 0.1 μM, incubation 24 h): 0.962 ± 0.184
Cell Survival (IEC-6/TRPV1- cells [2]; 1 μM, incubation 12 h): 1.001 ± 0.229
Cell Survival (IEC-6/TRPV1- cells [2]; 1 μM, incubation 24 h): 0.933 ± 0.077
Cell Survival (IEC-6/TRPV1- cells [2]; 5 μM, incubation 12 h): 0.931 ± 0.296
Cell Survival (IEC-6/TRPV1- cells [2]; 5 μM, incubation 24 h): 0.907 ± 0.039

From paper PMC6196238, “Novobiocin, a Newly Found TRPV1 Inhibitor, Attenuates the Expression of TRPV1 in Rat Intestine and Intestinal Epithelial Cell Line IEC-6” (Frontiers in Pharmacology, 2018)
